Data taken from patent publication US7300770B2, “Detection of microbe contamination on elastomeric articles” (Kimberly-Clark Worldwide, Inc., priority 2004, dated 2007).

Assays:
Influenza A = experiment: Virus detection on Reichardt's dye-coated stickers; conditions: undiluted virus, 50 microliters, 3 minutes
E. coli [1] = experiment: Titration of microorganisms with Reichardt's dye on cellulosic towel; parameters: species or system Escherichia coli; conditions: Gram(-), 10^7 CFU/mL, 100 microliters
vaccinia = conditions: undiluted virus, 50 microliters, 3 minutes
S. aureus [2] = experiment: Color change of Reichardt's dye-treated elastomeric gloves on contact with S. aureus; conditions: natural rubber latex glove; 160 mg dye/10 mL acetonitrile; 10^7 CFU/mL S. aureus
Source text: Specifically, a solution of Reichardt's dye (160 milligrams per 10 milliliters of acetonitrile) was brushed onto a piece of a natural rubber latex glove (commercially available from Kimberly-Clark Corp.). A 100-microliter drop of 10^7 CFU/mL S. aureus was then applied to the surface of the glove and gently spread using a disposable pipette. Thereafter, a finger of a second natural rubber latex glove (commercially available from Kimberly-Clark Corp.) was dipped into a solution of Reichardt's dye (160 milligrams per 10 milliliters of acetonitrile). After drying, the fingers of the second glove were used to spread bacteria from the S. aureus droplet placed onto the piece of latex glove to another area on the latex piece.

G. vaginalis = experiment: Titration of microorganisms with Reichardt's dye on cellulosic towel; conditions: Gram(-), 10^7 CFU/mL, 100 microliters
[3] = Color change of dye with bacterial cell-wall compounds on paper towel; parameters: species or system E. coli; Streptococcus faecalis; conditions: detoxified LPS, lipoteichoic acid
E. coli [4] = experiment: Cyclodextrin and Reichardt's dye coated towel exposed to E. coli
Protocol: A SCOTT® paper towel was first coated with hydroxypropyl-beta-cyclodextrin (from Cerestar International, Hammond, Ind., USA) in solution in water (1 gram in 20 milliliters) by dipping and air-drying at ambient temperature. After drying, the coated paper towel was treated with a solution of Reichardt's dye in isopropanol (1 weight percent) and allowed to air-dry. The dried towel was a purple/blue in color. The present inventors believe that the cyclodextrin hindered the crystallization of the dye, thus allowing a more vivid color of the dye to occur on the paper towel. This coated towel was used in a test with gram-negative bacteria (E. coli) and found to turn colorless in less than 5 seconds when an aliquot of 100 microliters of media containing 10,000 CFU per milliliter was applied to the towel. […] The inventors believe that by careful use of a coating (e.g. cyclodextrin), a monolayer coating of the dye may be formed.

[5] = tested on: juice from the aged chicken (high bacterial levels); experiment: Isopropanol dye spray on doorknob marked with aged chicken juice; conditions: 160 mg dye in 10 mL isopropanol, sprayed
Source text: Plastic doorknobs were utilized as a “real world” surface on which to test bacterial contamination. A raw chicken leg was initially aged at room temperature for several days to ensure high bacterial levels (referred to hereinafter as “aged chicken”). Juice from the aged chicken was then used to mark the surface of one of the knobs. The other door knob was left uncontaminated as a control. Both knobs were wiped. […] The isopropanol solution of the dye was sprayed on both surfaces.

S. aureus [6] = experiment: Visual quantification of S. aureus on dye-treated paper, with blind study
Protocol: The color differences at lower concentrations were less distinct, particularly for the brush-coated sheet. A blind study was then conducted. […] Concentrations of these three drops were unknown to two of the experiment participants. After approximately 2 minutes, the drops were removed and blotted. Using the control regions, the concentrations of each sample were each visually estimated by these two persons. Both persons correctly estimated the concentration of the first sample to be 10^6 CFU/mL. […] The persons, however, incorrectly estimated the third sample to be 10^3 CFU/mL. […] The present inventors believe, however, that the concentration of the chromogen and uniformity of the coating may be readily selected to achieve accurate results at such low concentrations.

S. aureus [7] = experiment: Titration of microorganisms with Reichardt's dye on cellulosic towel; parameters: species or system Staphylococcus aureus; conditions: Gram(+), 10^7 CFU/mL, 100 microliters
aged raw chicken juice = experiment: Dye spray on aged raw chicken juice pattern and re-colorization with 1 N NaOH
C. albicans = experiment: Titration of microorganisms with Reichardt's dye on cellulosic towel; conditions: yeast, 10^7 CFU/mL, 100 microliters
Rhinovirus [8] = experiment: Virus detection on Reichardt's dye-coated stickers; conditions: virus diluted serially in saline; 50 microliters, 3 minutes
P. aeruginosa = experiment: Titration of microorganisms with Reichardt's dye on cellulosic towel; conditions: Gram(-), 10^7 CFU/mL, 100 microliters
[9] = tested on: aged chicken juice (bacteria); experiment: Dye spray on hot plate: aged chicken juice versus canned chicken broth; conditions: 160 mg/10 mL isopropanol spray
Source text: Canned chicken broth was utilized as a control that would contain chicken derived products such as lipids, protein, etc., to check for potential interferences from these naturally occurring materials. Freshly opened Swanson® Chicken Broth was pipette onto a hot plate surface and wiped dry with a SCOTT® towel. Juice from raw chicken that had been stored at room temperature for several days was also pipetted onto the hot plate and wiped dry as a positive control. […] Thus, in the case of chicken, the presence of microbes was clearly responsible for triggering the change in color, and not some other component, such as chicken fat or proteins.

S. aureus [10] = experiment: Dye coatings from different solvents on towels exposed to S. aureus
Protocol: The behavior of Reichardt's dye coatings made using various different solvents was evaluated. Solutions of Reichardt's dye in acetonitrile, isopropanol, and xylenes were prepared and the solutions were used to coat SCOTT® kitchen rolls towels and allowed to air-dry. […] Though the color of the dye was less intense than that seen with acetonitrile, the color change due to microbial contamination was still readily observed.

L. acidophilus = experiment: Titration of microorganisms with Reichardt's dye on cellulosic towel; conditions: Lactobacillus, Gram(+), 10^7 CFU/mL, 100 microliters; 160 mg/10 mL acetonitrile
Rhinovirus [11] = tested on: Rhinovirus
[12] = 100 microliters undiluted virus, 80 mg/10 mL acetonitrile with or without TWEEN 80
[13] = surfactant- and non-surfactant-containing solutions

In the case of [O-]c1c(-c2ccccc2)cc(-[n+]2c(-c3ccccc3)cc(-c3ccccc3)cc2-c2ccccc2)cc1-c1ccccc1 [Reichardt's dye, 4-(2,4,6-triphenylpyridinium-1-yl)-2,6-diphenylphenolate], the De-colorization of sticker (Influenza A) is reported as “less than that observed for the other viruses”, the “Amount of Dye Required for Persistent Color” value (from here on “Amount of Dye Required”) (E. coli [1]) is reported as 80 µL and the De-colorization of sticker (vaccinia) is reported as “less than that observed for the other viruses”. The “Color change of glove piece and glove finger” value (S. aureus [2]) was “immediately changed”, the “Amount of Dye Required” value (G. vaginalis) was 90 µL and the “Color change of dye with the other cell-wall compounds” value [3] was “eventual color change”. For the same compound, the “Time to turn colorless” value (E. coli [4]; 100 microliters of media containing 10,000 CFU per milliliter) was “less than 5 seconds”, the “Time to color change” value (E. coli [4]; 500 CFU per milliliter) was at most 15 s and the “Bacteria concentration down to which color change occurred” value (E. coli [4]; hydroxypropyl-beta-cyclodextrin coated towel) was 500 CFU per milliliter. The “Color change at contaminated area of doorknob” value [5] was “blue to colorless”, the “S. aureus concentration giving obvious color change” value (S. aureus [6]; Neenah Bond paper, 80 mg/10 mL acetonitrile, about 2 minutes) was ≥ 10^5 CFU/mL and the “Visually estimated concentration in blind study” value (shortened to “Visually estimated concentration”) (S. aureus [6]; first sample, actual 10^6 CFU/mL, dip-coated sheet) was 10^6 CFU/mL. The “Visually estimated concentration” value (S. aureus [6]; second sample, actual 10^5 CFU/mL, brush-coated sheet) was 10^5 CFU/mL, the “Visually estimated concentration” value (S. aureus [6]; third sample, actual 10^4 CFU/mL, dip-coated sheet) was 10^3 CFU/mL and the “Amount of Dye Required” value (S. aureus [7]) was 90 µL. For the same compound, the “Effect of 1 N NaOH on area that changed color” value (aged raw chicken juice; drop of 1 N NaOH) was “re-colorization of that small spot”, the “Color change with aged chicken juice pre-mixed with 1 molar NaOH” value (aged raw chicken juice; equal proportions, 30 seconds) was “rapid color change” and the “Amount of Dye Required” value (C. albicans) was 70 µL. The “Dye added until the color persisted” value (Polio virus; [12]) was “approximately 9 drops”, the “Discharge of dye color on virus spot” value (Polio virus; [13]) was “rapidly discharged” and the “Ten-fold dilution down to which stickers changed color” value (Rhinovirus [8]) was 10^−6. For the same compound, the “Amount of Dye Required” value (P. aeruginosa) was 80 µL, the “Color change on hot plate surface” value [9] was “only the side containing the aged chicken juice (and thus bacteria) changed color” and the “Color change of coating where bacterial suspension was placed” value (S. aureus [10]; acetonitrile solution-based coating) was “rapid color change”. For the same compound, the “Color change of coating where bacterial suspension was placed” value (S. aureus [10]; isopropanol and xylenes coatings) was “No visible color change”, the “Amount of Dye Required” value (L. acidophilus) was 110 µL and the “Dye added until the color persisted” value (Rhinovirus [11]; [12]) was “approximately 9 drops”. The “Discharge of dye color on virus spot” value (Rhinovirus [11]; [13]) was “rapidly discharged”.
